Experimental findings from a melting point compilation (Tetko et al.; mined from patent text by program, amines drawn as free bases though some values may be those of a salt) are described below.

As usually defined, the melting point is the temperature, or range, at which the solid turns liquid. `NC(=O)CNS(=O)(=O)c1ccc(CCN2CC=C(c3c[nH]cc3-c3ccncc3)CC2c2ccc(F)cc2)cc1` (stereo unspecified) showed a melting point of 230 to 233 °C. To `O=C1CCC(N2Cc3c(OCc4ccc(CSc5nc6ccccc6[nH]5)cc4)cccc3C2=O)C(=O)N1` (stereo unspecified) belongs 160 to 162 °C; to `CC(C)(C)c1cc(OCc2ccc(-c3nnn[nH]3)cc2)cc(C(C)(C)C)c1O`, 235 to 237 °C; to `CCOC(=O)c1c(N2CCCC2)c2cccnc2n(C)c1=O`, 118 to 120 °C. As to `CCOC(=O)c1cnn(-c2ccccn2)c1N`, the melting point lay within 92 to 93 °C. For the compound `O=C(O)c1cc2cc(Br)ccc2nc1N[C@H](Cc1ccccc1)C(=O)O`, the melting point lay in the range of 140 to 141 °C. In turn, `CCOC(=O)Cn1cc(Cc2cccc([N+](=O)[O-])c2)c2ccccc21` showed a melting point of 163 to 165 °C. `O=S(=O)(c1ccc(Cl)cc1)C(c1ccc(CN2CCCCC2)cn1)c1cc(F)ccc1F` (stereo unspecified) had a melting point of 113 to 114 °C. In turn, `Cc1c(NC(=O)c2ccc(NC(=O)c3ccccc3)cc2)ccc2cc(CN3CCCC3)cnc12` displayed a melting point of 242 °C. In the case of `CCCc1cc(=O)oc2cc(OC(=O)CC)cc(O)c12` it was 166 to 168 °C; in that of `CC(C)(C)NC(=O)[C@@H]1C[C@H](N2CCOCC2)CN1C(=O)OC(C)(C)C`, 172 to 173 °C; in that of `O=C(Nc1ccc(Br)cn1)Nc1cccc2c1C1CCCCN1C2=O` (stereo unspecified), 225 °C. Compound `CC(=O)OCC(=O)C1C(C)CC2C3C=C(Cl)C4=CC(=O)C=CC4(C)C3C(O)CC21C` (stereo unspecified) displayed a melting point of 192 °C. For `Nc1ccc(OS(=O)(=O)c2ccc(-n3ccnc3)cc2)cc1[N+](=O)[O-]`, the melting point amounted to 209 °C. To `Cn1c(=O)c2c(ncn2CCCN2CCC(NC(=O)c3ccc(F)cc3)CC2)n(C)c1=O` belongs 192 to 193 °C; to `ClCCOc1ccc(/C=C/c2nc3ccccc3o2)cc1`, 88 to 90 °C; to `O=C(Nc1ccc2ccc(-c3ccc(Cl)c(Cl)c3)nc2n1)c1cccc(Br)c1`, 176 to 178 °C.

`Cn1ccc2ccc(/C=C/CN3CCN(C4c5ccccc5CCc5ncccc54)CC3)cc21` (stereo unspecified) displayed a melting point of 168 to 170 °C. In the case of `O=C1CC(C(O)(c2ccc(F)cc2)c2ccc(F)cc2)CN1Cc1ccccc1` (stereo unspecified) it was 158 to 160 °C.

The compound `Cc1nc(N2CCN(CCCC(F)(F)F)C2=O)sc1C(=O)NCc1cccnc1` displayed a melting point of 167 to 169 °C. In the case of `NC(=O)c1nn(S(=O)(=O)c2ccccc2)c2ccccc12` it was 208 to 210 °C; in that of `Cc1nc(CCOc2ccc(N)cc2)oc1-c1ccccc1`, 106 to 107 °C.

The compound `Clc1ccc2c(-n3cncn3)ccnc2c1` registered a melting point of 169 to 170 °C.

On to `COC(=O)C(O)=CC(=O)c1ncnc2c1ncn2Cc1ccccc1`, for which the melting point was 166 to 167 °C. Consider `Cc1ccc(O)c2c1C(=O)C(=O)N2Cc1ccccc1`, for which the melting point is 255 to 262 °C.

With `CCNc1ccc2c(c1)CNC2`, the melting point fell in the range of 69 to 71 °C. Consider `CC(C(O)c1ccc(O[Si](C(C)C)(C(C)C)C(C)C)c(F)c1)N1CCC(O)(c2ccc(F)cc2)CC1` (stereo unspecified), for which the melting point was in the range of 159 to 160 °C. Regarding `O=c1c2ccccc2c(Br)c(Br)c2ccc(Br)cc12`, the melting point was in the range of 173 to 175 °C. Compound `COc1cc(-c2cnc3[nH]cc(C(=O)C(C)(C)C)c3n2)cc(OC)c1OC` came in with a melting point of 240 to 241 °C. To `CCN(C)C(=O)c1ccc(N2CCN(Cc3cnc4c(c3)NC(=O)[C@@H]3CCCN43)CC2)cc1` belongs 91.9 °C. For the compound `O=C1CC(c2cccc(-c3csc(C(=O)NCCO)n3)c2)=Nc2ccc(-n3cccc3)cc2N1`, the melting point is 236 to 238 °C. To `CC(C)C[C@H](NS(=O)(=O)c1ccc(N(C)C)cc1)C(=O)N[C@H](C#N)CCc1ccccc1` belongs 46 to 48 °C.

On to `CC(NC(=O)OCc1ccccc1)C(=O)N1CC(=O)N(CC(N)=O)C1(C)C` (stereo unspecified), for which the melting point fell in the range of 206 to 210 °C. To `C[C@@H]1Cc2cc(N3C[C@H](COS(C)(=O)=O)OC3=O)ccc2N1C(=O)OCc1ccccc1` belongs 72 to 73 °C. In turn, `COc1nc2ccccc2cc1NC(=O)N1CCN(c2ccccc2F)CC1` had a melting point of 156 to 158 °C. In the case of `COC(=O)c1nc2n(n1)-c1ccc(Cl)cc1N(c1ccccc1)C2` it was 190 to 194 °C; in that of `CC(C)(C)OC(=O)c1ncn2c1CN=C(c1ccccc1)c1cc(Br)ccc1-2`, 222 to 223 °C. In the case of `CN(C(=O)CN(O)C(N)=O)c1cccc(Oc2ccccc2)c1` it was 110 to 112 °C. To `NC(=S)C=Cc1ccc(C(F)(F)F)cc1` belongs 167 to 170 °C; to `COc1cc(-n2nc(C#N)cc2-c2ccc(S(C)(=O)=O)cc2)ccc1Br`, 212 to 214 °C. The compound `CCN(CC)CCCNc1ncc2cc(-c3c(C)cccc3C)c(NC(=O)NC(C)(C)C)nc2n1` registered a melting point of 86 to 91 °C. As for `O=C(C1CCN(c2ccncc2)CC1)N1CCCN(S(=O)(=O)c2ccc3ccccc3c2)CC1`, the melting point lay in the range of 178 to 180 °C. To `Cc1cc2occ(C=O)c(=O)c2cc1C` belongs 154 to 156 °C; to `Cn1cc(C(=O)NCc2ccc(Cl)cc2)c(=O)c2cc(Br)oc21`, 232 to 233 °C; to `O=[N+]([O-])c1cc(-c2ccccc2)ccc1Cl`, 43 to 44 °C.

Regarding `O=C1CN=C(c2ccccc2)c2cc(C(c3ccc(Cl)cc3)n3ccnc3)ccc2N1` (stereo unspecified), the melting point worked out at 144 °C.

Compound `O=Cc1cc2c(ccc3c4ccccc4ccc23)o1` displayed a melting point of 169 °C. To `COC(=O)C(=Cc1cc(OC)cc(OC)c1)c1ccc(Oc2ccc(CC3SC(=O)NC3=O)cc2)cc1` (stereo unspecified) belongs 65 to 66 °C. `O=C(O)Cc1cccc(C=C(C(=O)O)c2nc(-c3ccccc3)c(-c3ccccc3)o2)c1` came in with a melting point of 178 to 182 °C. To `NC(=O)c1cc(-c2ccc(OC(F)(F)F)cc2)c2c3c(ccc2c1)OCO3` belongs 188 to 190 °C; to `O=C(NOC(=O)c1ccccc1)OCC1c2ccccc2-c2ccccc21`, 150 °C; to `O=[N+]([O-])c1ccc(SCCn2cnnc2)cc1`, 162 to 165 °C. As for `O=[N+]([O-])c1ccc(Oc2cncc(Cl)c2)cc1`, the melting point was 80 to 82 °C. To `COC(=O)c1ccc(C2C(C#N)=C(CC(C)C)NC(C)=C2C(=O)OC(C)(C)C)cc1` (stereo unspecified) belongs 191 to 193 °C; to `O=C1C2CCC(N2)C(=O)N1Cc1ccccc1`, 72 °C. In the case of `CCOC(=O)c1cnn2c1c(OCCCN(C)C)nc1ccccc12` it was 78 to 81 °C. In the case of `CC(=O)Nc1ccccc1NC(=O)CN1C(=O)c2ccccc2C1=O` it was 270 °C; in that of `CCCCCn1c2ccc(C(=O)NN3CCCCC3)cc2c2ccc(OC)cc21`, 178 to 179 °C; in that of `COC(=O)COc1cc(C(F)(F)F)cc(C(F)(F)F)c1`, 65 to 67 °C. Compound `Cc1noc(CCCCCCCOc2ccc(C3=NCCO3)cc2)c1CCl` returned a melting point of 103 to 104 °C.

Turning to `CCCc1nc2c(C(F)(F)F)cccc2c(O)c1C(=O)O`, the melting point worked out at 148 °C. For the compound `CC(=O)C(C)(N=Nc1ccc(C(O)(C(F)(F)F)C(F)(F)F)cc1)C(N)=O` (stereo unspecified), the melting point was in the range of 148 to 152 °C. To `COC(=O)c1cc(COC(C)=O)cc(-n2cccc2C#N)c1` belongs 85 to 86 °C; to `CCCCC/C(=C\C=C\C(=O)O)c1ccc(OC)cc1`, 86.5 to 87.5 °C; to `CNC(=O)c1cnc(SC)nc1Nc1ccc2[nH]ncc2c1`, 259 to 261 °C. For the compound `Cc1cc(C2=NNC(C)Cc3cc4c(cc32)OCO4)ccc1[N+](=O)[O-]` (stereo unspecified), the melting point was 144 to 147 °C. `COc1ccc(C(=O)c2ccccn2)cc1OC`: the melting point lay in the range of 91.5 to 93 °C.

Compound `CC(C)CCCOC1CCC2C3C(=O)C=C4CC(O[Si](C)(C)C(C)(C)C)CCC4(C)C3CCC12C` (stereo unspecified) had a melting point of 143 to 145 °C.

Compound `CCCCc1ncc(C=C2C(=O)Nc3ccccc32)n1Cc1ccc(C(=O)OCC)cc1` showed a melting point of 169 to 171 °C. As to `C#CCN1C(=O)COc2cc(-c3ncc(C(F)(F)F)c(C)c3Cl)c(F)cc21`, the melting point lay in the range of 156 to 157 °C. In the case of `COC(=O)COc1ccc(-c2ccc(C(=O)O)cc2)cc1-c1ccc2c(c1)C(C)(C)CCC2(C)C` it was 104 to 106 °C. As for `OC(c1ccccc1)c1cc(Cl)ccc1CNC(=S)NCCc1ccccc1` (stereo unspecified), the melting point worked out at 97 °C. In the case of `COC(=O)C(Cc1cc(OC)cc(OC)c1)c1ccc(Oc2ccc(C=C3SC(=O)NC3=O)cc2)cc1` (stereo unspecified) it was 104 to 106 °C; in that of `COC(=O)Cc1ccc2c(c1)C(=O)Cc1ccccc1C2`, 111 to 112 °C.

`O=C1NCCN1c1ccncc1` came in with a melting point of 204 to 207 °C. In the case of `CN(CC(=O)O)C(=S)c1cccc2c(Br)cccc12` it was 181 °C; in that of `Oc1ccc(Nc2ncc3ncc(-c4ccccc4O)cc3n2)cc1`, 262 to 264 °C. As for `Nc1ccc(C#Cc2ccccc2)c(-c2cc(N)ccc2C#Cc2ccccc2)c1`, the melting point is 159 to 161 °C. In turn, `O=C(c1ccccc1)c1ccc(OC(=O)C2CCCCC2)cc1` showed a melting point of 111 to 112 °C. To `CC(=O)Nc1c([N+](=O)[O-])cc([N+](=O)[O-])c2c1CCCC2` belongs 203 °C; to `CCOC(=O)C(=CNC1CC1)C(=O)c1c(F)c(F)c(F)c(F)c1N(C)C`, 122 to 124 °C. Take `O=C1CCCC(Sc2ccccc2)=C1C(=O)c1ccc(Cl)c(OCCn2cnnn2)c1Cl`: the melting point lay within 64 to 70 °C. In the case of `CCOC(=O)C(=CNc1nnc(C(F)(F)F)s1)C(=O)c1cc(F)c(Cl)nc1Cl` it was 73 to 76 °C; in that of `c1nc(Nc2ccc3[nH]ccc3c2)c2sc(-c3ccc(CN4CCOCC4)cc3)cc2n1`, 141 to 152 °C. In the case of `COc1ccc(-c2csc(Nc3ccccc3C(F)(F)F)n2)cc1OC` it was 188 °C; in that of `c1ccc(-c2ccc(-c3cc4ccccc4[nH]3)cc2)cc1`, 301 °C.
